The text below walks through data of ChEMBL document CHEMBL1201862, “PubChem BioAssay data set” (2004).

SMILES strings stand for the structures.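 These data come from cells grown in 96-well plates and exposed to compound for 48 hours at five concentrations. GI50 is the concentration that inhibits growth by half.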 The source made the active and inactive calls. No stated cut-off is given here; in the data, active = GI50 up to about 1.1 µM and inactive = higher.

Test systems include UACC-257; UACC-62; SR; CAKI-1; HT-29; OVCAR-8; HL-60; SN12C; SW-620; A498; HCC 2998; RXF 393; NCI-H23; OVCAR-4; K562; SNB-75; MDA-N; ACHN; OVCAR-5.
Common to all, as to assay: NCI tumour cell line growth inhibition, 48 h

On to `N#Cc1ccc(Oc2nc3ccc(C(F)(F)F)cc3nc2-c2ccccc2)cc1`, for which the GI50 is 21.8 µM (inactive) in the assay with UACC-257; 32.6 µM (inactive) in the assay with UACC-62; 2.77 µM (inactive) in the assay with SR; 22.6 µM (inactive) with CAKI-1; 16.7 µM (inactive) with HT-29; 14.9 µM (inactive) in the assay on OVCAR-8. The GI50 is 20.1 µM (inactive) in the assay with HL-60; 20.6 µM (inactive) with SN12C; 21.3 µM (inactive) in the assay on SW-620; 15.7 µM (inactive) with A498; 17 µM (inactive) in the assay on HCC 2998; 26.4 µM (inactive) in the assay on RXF 393. In addition, the GI50 with NCI-H23 is 16.5 µM (inactive); with OVCAR-4, 16.2 µM (inactive); with K562, 22.1 µM (inactive); in the assay with SNB-75, 14.1 µM (inactive); with MDA-N, 23 µM (inactive); in the assay on ACHN, 15.1 µM (inactive). Further, the GI50 in the assay with OVCAR-5 was 13.4 µM (inactive).

With `ClCC[N+]12CC[N+](CCCl)(CC1)C2`, the GI50 in the assay with UACC-257 was > 100 µM (inactive); with UACC-62 it was > 100 µM (inactive); in the assay on SR, 55 µM (inactive); in the assay with CAKI-1 it was > 75.5 µM (inactive); in the assay on HT-29 it was > 100 µM (inactive); in the assay on OVCAR-8, > 100 µM (inactive). In addition, the GI50 in the assay on HL-60, in the assay with SN12C, with SW-620, in the assay with A498, in the assay on HCC 2998 and with RXF 393 was > 100 µM (inactive) in each case. Moreover, the GI50 in the assay on NCI-H23, in the assay with OVCAR-4, in the assay on K562, in the assay with SNB-75, in the assay on MDA-N and in the assay with ACHN was > 100 µM (inactive) each time. Further, in the assay on OVCAR-5, the GI50 was > 100 µM (inactive).

In the case of `CCOC(=O)c1c(SC(=O)c2cc(OC)c(OC)c(OC)c2)n(-c2ccccc2)c(=S)n(-c2ccccc2)c1=O`, the GI50 in the assay on UACC-257, in the assay on UACC-62, in the assay on SR, in the assay with CAKI-1, in the assay with HT-29 and in the assay on OVCAR-8 was > 100 µM (inactive) throughout. Further, the GI50 with HL-60, in the assay with SN12C, in the assay with SW-620, in the assay on A498, with HCC 2998 and in the assay with RXF 393 was > 100 µM (inactive) in each case. For the same compound, the GI50 in the assay on NCI-H23, in the assay with OVCAR-4, in the assay with K562, in the assay with SNB-75, with MDA-N and in the assay on ACHN was > 100 µM (inactive) in each case. Further, the GI50 in the assay on OVCAR-5 is > 100 µM (inactive).

In the case of `CC1(c2ccc(Cl)cc2)N=C(NCCO)c2ccccc21` (stereo not drawn), the GI50 in the assay on UACC-257 was 17.1 µM (inactive); in the assay with UACC-62 it was 12 µM (inactive); in the assay with SR it was 16.4 µM (inactive); in the assay on CAKI-1, > 71 µM (inactive); in the assay with HT-29, 5.74 µM (inactive); in the assay on OVCAR-8, 51.8 µM (inactive). The GI50 was 3.23 µM (inactive) with HL-60; 16.9 µM (inactive) in the assay on SN12C; 10.5 µM (inactive) in the assay on SW-620; 18.6 µM (inactive) in the assay on A498; 12.2 µM (inactive) in the assay with HCC 2998; 16.3 µM (inactive) in the assay on RXF 393. Besides, the GI50 with NCI-H23 was 13.8 µM (inactive); in the assay on OVCAR-4, 67.9 µM (inactive); in the assay with K562, 6.61 µM (inactive); with SNB-75, 19.5 µM (inactive); in the assay with MDA-N, 10.7 µM (inactive); in the assay on ACHN, 29.4 µM (inactive). Moreover, in the assay on OVCAR-5, the GI50 is 19.2 µM (inactive).

For `Cc1ccc([N+](=O)[O-])cc1S(=O)(=O)Nc1ccc(C2=NOC(c3ccccc3)C2)cc1` (stereo not drawn), the GI50 was 14.7 µM (inactive) with UACC-257; 3.85 µM (inactive) in the assay on UACC-62; 1.31 µM (inactive) in the assay with SR; 7.1 µM (inactive) with CAKI-1; 6.78 µM (inactive) in the assay with HT-29; 18.3 µM (inactive) in the assay on OVCAR-8. Moreover, the GI50 was 5.12 µM (inactive) in the assay on HL-60; 12.9 µM (inactive) in the assay with SN12C; 6 µM (inactive) in the assay on SW-620; 4.03 µM (inactive) with A498; 9.04 µM (inactive) in the assay on HCC 2998; 1.82 µM (inactive) in the assay on RXF 393. Besides, the GI50 is 14.5 µM (inactive) in the assay on NCI-H23; 1.32 µM (inactive) in the assay on OVCAR-4; 1.96 µM (inactive) with K562; 8.18 µM (inactive) in the assay with SNB-75; 1.99 µM (inactive) in the assay on MDA-N; 13.5 µM (inactive) in the assay on ACHN. Moreover, the GI50 with OVCAR-5 is 25.4 µM (inactive).

Turning to `COC(=O)C1=NN2c3ccccc3CN([C@@H](C)c3ccccc3)C(=O)[C@H]2[C@@H]1C`, the GI50 was 26.9 µM (inactive) with UACC-257; 40.6 µM (inactive) in the assay on UACC-62; 25.5 µM (inactive) in the assay on SR; 33.7 µM (inactive) in the assay with CAKI-1; 31.8 µM (inactive) in the assay on HT-29; 34.7 µM (inactive) in the assay with OVCAR-8. Further, the GI50 in the assay with HL-60 is 0.769 µM (active); in the assay on SN12C, 70.6 µM (inactive); in the assay with SW-620 it was 43.1 µM (inactive); in the assay with A498, > 100 µM (inactive); in the assay on HCC 2998 it was 24.7 µM (inactive); in the assay on RXF 393 it was 40.3 µM (inactive). Moreover, the GI50 with NCI-H23 is 33.1 µM (inactive); with OVCAR-4, 28.9 µM (inactive); with K562, 7.13 µM (inactive); with SNB-75, 27.2 µM (inactive); with MDA-N it was 34.5 µM (inactive); in the assay with ACHN, 39 µM (inactive). The GI50 with OVCAR-5 was 37.6 µM (inactive).

As to `Cn1/c(=N\N=C2\C=C3CCCCC3(C)CC2)sc2ccccc21` (stereo not drawn), the GI50 with UACC-257, in the assay with UACC-62, with SR, in the assay with CAKI-1, in the assay with HT-29 and with OVCAR-8 was > 100 µM (inactive) each time. In addition, the GI50 in the assay with HL-60, in the assay on SN12C, in the assay with SW-620, in the assay on A498, in the assay on HCC 2998 and in the assay on RXF 393 was > 100 µM (inactive) each time. In addition, the GI50 was > 100 µM (inactive) with NCI-H23; > 100 µM (inactive) in the assay with OVCAR-4; > 100 µM (inactive) in the assay on K562; 47.1 µM (inactive) in the assay with SNB-75; > 100 µM (inactive) with MDA-N; > 100 µM (inactive) in the assay with ACHN. Besides, in the assay with OVCAR-5, the GI50 is > 100 µM (inactive).
